Results published in patent publication US20160168130A1, “HETEROARYL SUBSTITUTED PYRAZOLES” (BAYER PHARMA AKTIENGESELLSCHAFT, priority 2013, published 2016).

Columns and labels:
[1] = target: T1, catalytic domain of human Bub1 (amino acids 704-1085) (Homo sapiens, UniProt O43683); test: Bub1 kinase assay (TR-FRET); assay type: biochemical; conditions: 10 μM ATP, 1 μM peptide substrate, median, read-out: Biological Assay 1: Bub1 kinase assay median IC50
T1 construct: catalytic domain of human Bub1 (amino acids 704-1085); His6 (N); made in house; host or cells: Hi5 insect cells
T1 sequence (O43683 704-1085): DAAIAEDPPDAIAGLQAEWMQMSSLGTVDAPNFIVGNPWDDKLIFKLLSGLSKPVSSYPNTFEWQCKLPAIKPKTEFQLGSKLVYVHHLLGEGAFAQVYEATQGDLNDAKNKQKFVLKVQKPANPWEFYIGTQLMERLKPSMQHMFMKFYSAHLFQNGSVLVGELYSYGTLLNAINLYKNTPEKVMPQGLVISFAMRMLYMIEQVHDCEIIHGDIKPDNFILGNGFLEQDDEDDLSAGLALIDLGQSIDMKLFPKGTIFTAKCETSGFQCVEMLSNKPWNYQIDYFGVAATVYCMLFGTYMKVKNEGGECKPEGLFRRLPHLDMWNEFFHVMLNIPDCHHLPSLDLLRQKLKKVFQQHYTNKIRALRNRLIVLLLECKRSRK
Text: Bub1-inhibitory activities of compounds described in the present invention were quantified using a time-resolved fluorescence energy transfer (TR-FRET) kinase assay which measures phosphorylation of the synthetic peptide Biotin-Ahx-VLLPKKSFAEPG (C-terminus in amide form), purchased from e.g. Biosyntan (Berlin, Germany) by the (recombinant) catalytic domain of human Bub1 (amino acids 704-1085), expressed in Hi5 insect cells with an N-terminal His6-tag and purified by affinity-(Ni-NTA) and size exclusion chromatography.
In a typical assay 11 different concentrations of each compound (0.1 nM, 0.33 nM, 1.1 nM, 3.8 nM, 13 nM, 44 nM, 0.15 μM, 0.51 μM, 1.7 μM, 5.9 μM and 20 μM) were tested in duplicate within the same microtiter plate. To this end, 100-fold concentrated compound solutions (in DMSO) were previously prepared by serial dilution (1:3.4) of 2 mM stocks in a clear low volume 384-well source microtiter plate (Greiner Bio-One, Frickenhausen, Germany), from which 50 nL of compounds were transferred into a black low volume test microtiter plate from the same supplier. Subsequently, 2 μL of Bub1 (the final concentration of Bub1 was adjusted depending on the activity of the enzyme lot in order to be within the linear dynamic range of the assay: typically ˜200 ng/mL were used) in aqueous assay buffer [50 mM Tris/HCl pH 7.5, 10 mM magnesium chloride (MgCl2), 200 mM potassium chloride (KCl), 1.0 mM dithiothreitol (DTT), 0.1 mM sodium ortho-vanadate, 1% (v/v) glycerol, 0.01% (w/v) bovine serum albumine (BSA), 0.005% (v/v) Trition X-100 (Sigma), 1× Complete EDTA-free protease inhibitor mixture (Roche)] were added to the compounds in the test plate and the mixture was incubated for 15 min at 22° C. to allow pre-equilibration of the putative enzyme-inhibitor complexes before the start of the kinase reaction, which was initiated by the addition of 3 μL 1.67-fold concentrated solution (in assay buffer) of adenosine-tri-phosphate (ATP, 10 μM final concentration) and peptide substrate (1 μM final concentration). The resulting mixture (5 μL final volume) was incubated at 22° C. during 60 min., and the reaction was stopped by the addition of 5 μL of an aqueous EDTA-solution (50 mM EDTA, in 100 mM HEPES pH 7.5 and 0.2% (w/v) bovine serum albumin) which also contained the TR-FRET detection reagents (0.2 μM streptavidin-XL665 [Cisbio Bioassays, Codolet, France] and 1 nM anti-phosho-Serine antibody [Merck Millipore, cat. #35-001] and 0.4 nM LANCE EU-W1024 labeled anti-mouse IgG antibody [Perkin-Elmer, product no. AD0077, alternatively a Terbium-cryptate-labeled anti-mouse IgG antibody from Cisbio Bioassays can be used]). The stopped reaction mixture was further incubated 1 h at 22° C. in order to allow the formation of complexes between peptides and detection reagents. Subsequently, the amount of product was evaluated by measurement of the resonance energy transfer from the Eu-chelate-antibody complex recognizing the Phosphoserine residue to the streptavidin-XL665 bound to the biotin moiety of the peptide. To this end, the fluorescence emissions at 620 nm and 665 nm after excitation at 330-350 nm were measured in a TR-FRET plate reader, e.g. a Rubystar or Pherastar (both from BMG Labtechnologies, Offenburg, Germany) or a Viewlux (Perkin-Elmer) and the ratio of the emissions (665 nm/622 nm) was taken as indicator for the amount of phosphorylated substrate. The data were normalised using two sets of (typically 32—) control wells for high—(=enzyme reaction without inhibitor=0% =Minimum inhibition) and low—(=all assay components without enzyme=100%=Maximum inhibition) Bub1 activity. IC50 values were calculated by fitting the normalized inhibition data to a 4-parameter logistic equation (Minimum, Maximum, IC50, Hill; Y=Max+(Min−Max)/(1+(X/IC50)Hill)).

[2] = tested on: HeLa human cervical cancer cell line; test: Proliferation assay (crystal violet staining); assay type: cell-based; conditions: 96 h, HeLa cells, 4 days incubation, median, read-out: Biological Assay 2: Proliferation assay (HeLa cell line) median IC50
Experimental: Cultivated tumor cells (cells were ordered from ATCC) were plated at a density of 3000 cells/well in a 96-well multititer plate in 200 μL of growth medium supplemented 10% fetal calf serum. After 24 hours, the cells of one plate (zero-point plate) were stained with crystal violet (see below), while the medium of the other plates was replaced by fresh culture medium (200 μL), to which the test substances were added in various concentrations (0 μM, as well as in the range of 0.001-10 μM; the final concentration of the solvent dimethyl sulfoxide was 0.5%). The cells were incubated for 4 days in the presence of test substances. Cell proliferation was determined by staining the cells with crystal violet: the cells were fixed by adding […] of an 11% glutaric aldehyde solution for 15 minutes at room temperature. After three washing cycles of the fixed cells with water, the plates were dried at room temperature. The cells were stained by adding 100 μL/measuring point of a 0.1% crystal violet solution (pH 3.0). After three washing cycles of the stained cells with water, the plates were dried at room temperature. The dye was dissolved by adding 100 μL/measuring point of a 10% acetic acid solution. Absorbtion was determined by photometry at a wavelength of 595 nm. The change of cell number, in percent, was calculated by normalization of the measured values to the absorbtion values of the zero-point plate(=0%) and the absorbtion of the untreated (0 μm) cells(=100%). The IC50 values were determined by means of a 4 parameter fit.

IC50 [1] [nM] | IC50 [2] [µM] | SMILES
5 | > 10 | CCOc1cc(F)c(Cn2nc(-c3nccc(Nc4ccncn4)n3)c(Cl)c2C2CC2)c(F)c1 [Example 2-1-1, 2-[4-chloro-5-cyclopropyl-1-(4-ethoxy-2,6-difluorobenzyl)-1H-pyrazol-3-yl]-N-(pyrimidin-4-yl)pyrimidin-4-amine]
16 | 3.5 | CCOc1cc(F)c(Cn2nc(-c3ncc(OC)c(Nc4ccncn4)n3)c(C)c2C2CC2)c(F)c1 [Example 2-1-2, 2-[5-cyclopropyl-1-(4-ethoxy-2,6-difluorobenzyl)-4-methyl-1H-pyrazol-3-yl]-5-methoxy-N-(pyrimidin-4-yl)pyrimidin-4-amine]
17 | > 10 | CCOc1cc(F)c(Cn2nc(-c3nccc(Nc4ccncn4)n3)c(C)c2C2CC2)c(F)c1 [Example 2-1-3, 2-[5-cyclopropyl-1-(4-ethoxy-2,6-difluorobenzyl)-4-methyl-1H-pyrazol-3-yl]-N-(pyrimidin-4-yl)pyrimidin-4-amine]
52 | > 10 | CCOc1cc(F)c(Cn2nc(-c3ncc(OC)c(Nc4ccnnc4)n3)c(C)c2C2CC2)c(F)c1 [Example 2-1-4, N-{2-[5-cyclopropyl-1-(4-ethoxy-2,6-difluorobenzyl)-4-methyl-1H-pyrazol-3-yl]-5-methoxy-pyrimidin-4-yl}pyridazin-4-amine]
85 | > 10 | CCOc1cc(F)c(Cn2cc(C)c(-c3ncc(OC)c(Nc4ccncn4)n3)n2)c(F)c1 [Example 2-1-5, 2-[1-(4-ethoxy-2,6-difluorobenzyl)-4-methyl-1H-pyrazol-3-yl]-5-methoxy-N-(pyrimidin-4-yl)pyrimidin-4-amine]
100 | > 10 | CCOc1cc(F)c(Cn2cc(Cl)c(-c3ncc(OC)c(Nc4ccncn4)n3)n2)c(F)c1 [Example 2-1-6, 2-[4-chloro-1-(4-ethoxy-2,6-difluorobenzyl)-1H-pyrazol-3-yl]-5-methoxy-N-(pyrimidin-4-yl)pyrimidin-4-amine]
3600 | > 10 | COc1cnc(-c2cc(OC)n(Cc3ccccc3F)n2)nc1Nc1ccncn1 [Example 2-1-7, 2-[1-(2-fluorobenzyl)-5-methoxy-1H-pyrazol-3-yl]-5-methoxy-N-(pyrimidin-4-yl)pyrimidin-4-amine]
